Test system: Escherichia coli strain ATCC25922
Assay: standard microdilution assay to determine minimum inhibitory concentrations (MICs)
Type: cell-based
Details: Escherichia coli strain ATCC25922, microdilution
In short: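 MICs come from CLSI-guided microdilution in 100 μl, run alongside reference-strain performance standards. Values appear as "+" or "−" relative to 16 micrograms/ml, with "N/A" marking missing data.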

Row | Structure (SMILES) | E. coli ATCC25922 MIC
1 | CC(N)CCCc1cc(-c2cc3cn(-c4ccc(CNCCCNC(=N)N)cc4)c(=O)nc3[nH]2)c(F)c(C(F)(F)F)c1 (stereo not drawn) [Compound 275] | + (a “+” indicates that the compound has an MIC value of 16 micrograms/ml or less)
2 | CC(CCCc1cc(-c2cc3cn(-c4ccc(C(C)NCCCNC(=N)N)cc4)c(=O)nc3[nH]2)cc(C(F)(F)F)c1)NC(=N)N (stereo not drawn) [Compound 276] | + (a “+” indicates that the compound has an MIC value of 16 micrograms/ml or less)
3 | CC(N)CCc1cc(Cl)c(F)c(-c2cc3cn(-c4ccc(CNCCCNC(=N)N)cc4)c(=O)nc3[nH]2)c1 (stereo not drawn) [Compound 278] | + (a “+” indicates that the compound has an MIC value of 16 micrograms/ml or less)
4 | CC(CN)Cc1cc(-c2cc3cn(-c4ccc(CNCCCNC(=N)N)cc4)c(=O)nc3[nH]2)c(F)c(C(F)(F)F)c1 (stereo not drawn) [Compound 280] | + (a “+” indicates that the compound has an MIC value of 16 micrograms/ml or less)
5 | CC(N)CCCc1cc(OC(F)(F)F)c(Cl)c(-c2cc3cn(-c4ccc(CNCCCNC(=N)N)cc4)c(=O)nc3[nH]2)c1 (stereo not drawn) [Compound 281] | + (a “+” indicates that the compound has an MIC value of 16 micrograms/ml or less)
6 | CC(N)CCCc1cc(OC(F)(F)F)c(Cl)c(-c2cc3cn(-c4ccc(C(C)NCCCNC(=N)N)cc4)c(=O)nc3[nH]2)c1 (stereo not drawn) [Compound 282] | + (a “+” indicates that the compound has an MIC value of 16 micrograms/ml or less)
7 | CCc1cc(CCCC(C)N)cc(-c2cc3cn(-c4ccc(CNCCCNC(=N)N)cc4)c(=O)nc3[nH]2)c1Cl (stereo not drawn) [Compound 283] | + (a “+” indicates that the compound has an MIC value of 16 micrograms/ml or less)
8 | CCc1cc(CCCC(C)NC(=N)N)cc(-c2cc3cn(-c4ccc(CNCCCNC(=N)N)cc4)c(=O)nc3[nH]2)c1Cl (stereo not drawn) [Compound 284] | + (a “+” indicates that the compound has an MIC value of 16 micrograms/ml or less)
9 | CCc1cc(CCCCNC(=N)N)cc(-c2cc3cn(-c4ccc(CNCCCNC(=N)N)cc4)c(=O)nc3[nH]2)c1Cl [Compound 285] | + (a “+” indicates that the compound has an MIC value of 16 micrograms/ml or less)
10 | CC(N)CCCc1cc(OC(F)(F)F)c(F)c(-c2cc3cn(-c4ccc(CNCCCNC(=N)N)cc4)c(=O)nc3[nH]2)c1 (stereo not drawn) [Compound 286] | + (a “+” indicates that the compound has an MIC value of 16 micrograms/ml or less)
11 | CNC(C)CCCc1cc(-c2cc3cn(-c4ccc(CNCCCNC(=N)N)cc4)c(=O)nc3[nH]2)cc(C(F)(F)F)c1 (stereo not drawn) [Compound 287] | + (a “+” indicates that the compound has an MIC value of 16 micrograms/ml or less)
12 | CC(N)CCCc1cc(SC(F)(F)F)c(Cl)c(-c2cc3cn(-c4ccc(CNCCCNC(=N)N)cc4)c(=O)nc3[nH]2)c1 (stereo not drawn) [Compound 288] | + (a “+” indicates that the compound has an MIC value of 16 micrograms/ml or less)
13 | CC(N)CCCc1cc(SC(F)(F)F)c(Cl)c(-c2cc3cn(-c4ccc(C(C)NCCCNC(=N)N)cc4)c(=O)nc3[nH]2)c1 (stereo not drawn) [Compound 289] | + (a “+” indicates that the compound has an MIC value of 16 micrograms/ml or less)
14 | CNC(C)CCCc1cc(-c2cc3cn(-c4ccc(C(C)NCCCNC(=N)N)cc4)c(=O)nc3[nH]2)cc(C(F)(F)F)c1 (stereo not drawn) [Compound 290] | + (a “+” indicates that the compound has an MIC value of 16 micrograms/ml or less)
15 | CNC(C)CCCc1cc(Cl)c(F)c(-c2cc3cn(-c4ccc(CNCCCNC(=N)N)cc4)c(=O)nc3[nH]2)c1 (stereo not drawn) [Compound 292] | + (a “+” indicates that the compound has an MIC value of 16 micrograms/ml or less)
16 | N=C(N)NCCCNCc1ccc(-n2cc3cc(-c4cc(CCCCN)cc(C(F)(F)F)c4C(F)(F)F)[nH]c3nc2=O)cc1 [Compound 293] | + (a “+” indicates that the compound has an MIC value of 16 micrograms/ml or less)
17 | CNC(C)CCCc1cc(SC(F)(F)F)cc(-c2cc3cn(-c4ccc(CNCCCNC(=N)N)cc4)c(=O)nc3[nH]2)c1 (stereo not drawn) [Compound 294] | + (a “+” indicates that the compound has an MIC value of 16 micrograms/ml or less)
18 | CC(C)(N)CCCc1cc(Cl)c(F)c(-c2cc3cn(-c4ccc(CNCCCNC(=N)N)cc4)c(=O)nc3[nH]2)c1 [Compound 295] | + (a “+” indicates that the compound has an MIC value of 16 micrograms/ml or less)
19 | C[C@H](NCCCNC(=N)N)c1ccc(-n2cc3cc(-c4cc(CCCC(C)(C)N)cc(Cl)c4F)[nH]c3nc2=O)cc1 [Compound 296] | + (a “+” indicates that the compound has an MIC value of 16 micrograms/ml or less)
20 | CC(N)CCCc1cc(OC(F)F)c(F)c(-c2cc3cn(-c4ccc(CNCCCNC(=N)N)cc4)c(=O)nc3[nH]2)c1 (stereo not drawn) [Compound 297] | + (a “+” indicates that the compound has an MIC value of 16 micrograms/ml or less)
21 | CC(CCCc1cc(Cl)c(F)c(-c2cc3cn(-c4ccc(CNCCCNC(=N)N)cc4)c(=O)nc3[nH]2)c1)N(C)C (stereo not drawn) [Compound 298] | + (a “+” indicates that the compound has an MIC value of 16 micrograms/ml or less)

Row | Structure (SMILES) | E. coli ATCC25922 MIC
22 | CC(N)CCCc1cc(OC(F)F)c(F)c(-c2cc3cn(-c4ccc(C(C)NCCCNC(=N)N)cc4)c(=O)nc3[nH]2)c1 (stereo not drawn) [Compound 299] | + (a “+” indicates that the compound has an MIC value of 16 micrograms/ml or less)
23 | CCc1cc(CCCC(C)N)cc(-c2cc3cn(-c4ccc(C(C)NCCCNC(=N)N)cc4)c(=O)nc3[nH]2)c1F (stereo not drawn) [Compound 300] | + (a “+” indicates that the compound has an MIC value of 16 micrograms/ml or less)
24 | CCc1cc(CCCC(C)N)cc(-c2cc3cn(-c4ccc(CNCCCNC(=N)N)cc4)c(=O)nc3[nH]2)c1F (stereo not drawn) [Compound 301] | + (a “+” indicates that the compound has an MIC value of 16 micrograms/ml or less)
25 | C[C@@H](CCCc1cc(SC(F)(F)F)cc(-c2cc3cn(-c4ccc(CNCCCNC(=N)N)cc4)c(=O)nc3[nH]2)c1)N(C)C [Compound 302] | + (a “+” indicates that the compound has an MIC value of 16 micrograms/ml or less)
26 | CC(C)(N)CCCc1cc(SC(F)(F)F)cc(-c2cc3cn(-c4ccc(CNCCCNC(=N)N)cc4)c(=O)nc3[nH]2)c1 [Compound 303] | + (a “+” indicates that the compound has an MIC value of 16 micrograms/ml or less)
27 | C[C@H](NCCCNC(=N)N)c1ccc(-n2cc3cc(-c4cc(CCCC(C)(C)N)cc(SC(F)(F)F)c4)[nH]c3nc2=O)cc1 [Compound 304] | + (a “+” indicates that the compound has an MIC value of 16 micrograms/ml or less)
28 | C[C@H](N)CCCc1cc(SC(F)F)cc(-c2cc3cn(-c4ccc(CNCCCNC(=N)N)cc4)c(=O)nc3[nH]2)c1 [Compound 305] | + (a “+” indicates that the compound has an MIC value of 16 micrograms/ml or less)
29 | C[C@H](N)CCCc1cc(CC(F)(F)F)cc(-c2cc3cn(-c4ccc(CNCCCNC(=N)N)cc4)c(=O)nc3[nH]2)c1 [Compound 306] | + (a “+” indicates that the compound has an MIC value of 16 micrograms/ml or less)
30 | N=C(N)NCCCNCc1ccc(-n2cc3cc(-c4cc(CCC5(CN)CC5)cc(SC(F)(F)F)c4)[nH]c3nc2=O)cc1 [Compound 307] | + (a “+” indicates that the compound has an MIC value of 16 micrograms/ml or less)
31 | C[C@H](N)CCCc1cc(SC(F)F)cc(-c2cc3cn(-c4ccc([C@H](C)NCCCNC(=N)N)cc4)c(=O)nc3[nH]2)c1 [Compound 308] | + (a “+” indicates that the compound has an MIC value of 16 micrograms/ml or less)
32 | C[C@@H](CCCc1cc(-c2cc3cn(-c4ccc(CNCCCNC(=N)N)cc4)c(=O)nc3[nH]2)cc(C(F)(F)F)c1)N(C)C [Compound 309] | + (a “+” indicates that the compound has an MIC value of 16 micrograms/ml or less)
33 | C[C@H](NCCCNC(=N)N)c1ccc(-n2cc3cc(-c4cc(CCC5(CN)CC5)cc(SC(F)(F)F)c4)[nH]c3nc2=O)cc1 [Compound 310] | + (a “+” indicates that the compound has an MIC value of 16 micrograms/ml or less)
34 | C[C@H](N)COCc1cc(OC(F)(F)F)cc(-c2cc3cn(-c4ccc(CNCCCNC(=N)N)cc4)c(=O)nc3[nH]2)c1 [Compound 311] | + (a “+” indicates that the compound has an MIC value of 16 micrograms/ml or less)
35 | C[C@H](N)C/C=C/c1cc(Cl)c(F)c(-c2cc3cn(-c4ccc(CNCCCNC(=N)N)cc4)c(=O)nc3[nH]2)c1 [Compound 312] | + (a “+” indicates that the compound has an MIC value of 16 micrograms/ml or less)
36 | Cc1cc(CCC[C@H](C)N)cc(-c2cc3cn(-c4ccc(CNCCCNC(=N)N)cc4)c(=O)nc3[nH]2)c1Cl [Compound 313] | + (a “+” indicates that the compound has an MIC value of 16 micrograms/ml or less)
37 | C[C@@H](CN)OCc1cc(-c2cc3cn(-c4ccc(CNCCCNC(=N)N)cc4)c(=O)nc3[nH]2)cc(C(F)(F)F)c1 [Compound 314] | + (a “+” indicates that the compound has an MIC value of 16 micrograms/ml or less)
38 | C[C@H](NCCCNC(=N)N)c1ccc(-n2cc3cc(-c4cc(CO[C@@H](C)CN)cc(C(F)(F)F)c4)[nH]c3nc2=O)cc1 [Compound 315] | + (a “+” indicates that the compound has an MIC value of 16 micrograms/ml or less)
39 | C[C@H](N)CCCc1cc(OC(F)(F)F)c(F)c(-c2cc3cn(-c4ccc([C@H](C)NCCCNC(=N)N)cc4)c(=O)nc3[nH]2)c1 [Compound 316] | + (a “+” indicates that the compound has an MIC value of 16 micrograms/ml or less)
40 | CC(C)(N)CCCc1cc(-c2cc3cn(-c4ccc(CNCCCNC(=N)N)cc4)c(=O)nc3[nH]2)cc(C(F)(F)F)c1 [Compound 317] | + (a “+” indicates that the compound has an MIC value of 16 micrograms/ml or less)
41 | C[C@H](NCCCNC(=N)N)c1ccc(-n2cc3cc(-c4cc(CCCC(C)(C)N)cc(C(F)(F)F)c4)[nH]c3nc2=O)cc1 [Compound 318] | + (a “+” indicates that the compound has an MIC value of 16 micrograms/ml or less)
42 | N=C(N)NCCCNCc1ccc(-n2cc3cc(-c4cc(CCC5(CN)CC5)cc(C(F)(F)F)c4)[nH]c3nc2=O)cc1 [Compound 319] | + (a “+” indicates that the compound has an MIC value of 16 micrograms/ml or less)

From patent US9221827B2, “Antimicrobial compounds and methods of making and using the same” (Melinta Therapeutics, Inc., priority 2011, dated 2015)
